What all share (format): physicochemical
Data set [1] can be described thus: Partition coefficient (logP). The settings on record: octanol/water.
Data set [2] can be described thus: log P value was reported at a pH 2.0. The settings on record: buffer.
A short description of data set [3]: Partition coefficient (logD) (0.1 N NaOH).

Numbered stars: 1 amine (or outer) side, 2 acyl side, 3 side chain; on linkers, the order of the positions; unused ones are H or OH. Bridge positions count the residues as written; N and C are the ends. Square brackets hold non-standard residues; d marks the D form. Peptide text beside a SMILES is read from it. I, II: the chains in the order shown. Actinocin(9to1) = Cc1c2oc3c(C)ccc(C(=O)[*:1])c3nc-2c(C(=O)[*:2])c(N)c1=O; NMeV = CN[C@H](C(=O)O)C(C)C; Sar = CNCC(=O)O

What is called logP is a log measure of how a compound divides between an organic and an aqueous phase. Regarding `Cc1c2oc3c(C)ccc(C(=O)N[C@@H]4C(=O)N[C@H](C(C)C)C(=O)N5CCC[C@H]5C(=O)N(C)CC(=O)N(C)[C@@H](C(C)C)C(=O)O[C@@H]4C)c3nc-2c(C(=O)N[C@@H]2C(=O)N[C@H](C(C)C)C(=O)N3CCC[C@H]3C(=O)N(C)CC(=O)N(C)[C@@H](C(C)C)C(=O)O[C@@H]2C)c(N)c1=O` [DACTINOMYCIN] (I: T[dV]P[Sar][NMeV] / II: T[dV]P[Sar][NMeV]; ester I:1-I:C, II:1-II:C; linker I:N-II:N via Actinocin(9to1)), in data set [1] (read-out: logP), the lipophilicity (logP) amounted to 3.21.
As for `COc1cccc2c1C(=O)c1c(O)c3c(c(O)c1C2=O)C[C@@](O)(C(C)=O)C[C@@H]3O[C@H]1C[C@H](N)[C@H](O)[C@H](C)O1` [DAUNORUBICIN], the lipophilicity (logP) in data set [1] (read-out: logP) turned out to be 0.66.
For `COc1cccc2c1C(=O)c1c(O)c3c(c(O)c1C2=O)C[C@@](O)(C(=O)CO)C[C@@H]3O[C@H]1C[C@H](N)[C@H](O)[C@H](C)O1` [DOXORUBICIN], the logP in data set [1] (read-out: logP) came to 0.1.
With `NC(=O)NO` [HYDROXYUREA], in data set [1] (read-out: logP), the log partition coefficient (logP) was -1.8.
The logD is lipophilicity at a set pH, counting ionised and neutral species. As for `CN(Cc1cnc2nc(N)nc(N)c2n1)c1ccc(C(=O)N[C@@H](CCC(=O)O)C(=O)O)cc1` [METHOTREXATE], the pH-dependent lipophilicity (logD) in data set [2] was -2.59.
The molecule `CO[C@@]12[C@H](COC(N)=O)C3=C(C(=O)C(C)=C(N)C3=O)N1C[C@@H]1N[C@@H]12` [MITOMYCIN] registered a logP in data set [1] of -0.47.
In the case of `COc1ccc(OC)c(Cc2cnc3nc(N)nc(N)c3c2C)c1` [PIRITREXIM], the log distribution coefficient (logD) in data set [3] (0.1 N NaOH, read-out: logD) turned out to be 2.13.
For `COc1ccc(C[C@H](N)C(=O)N[C@H]2[C@@H](O)[C@H](n3cnc4c(N(C)C)ncnc43)O[C@@H]2CO)cc1` [PUROMYCIN], in data set [1] (read-out: logP), the lipophilicity (logP) was found to be 0.03.
For the molecule `COCCOc1c(OC)cc(Cc2cnc(N)nc2N)cc1OC` [TETROXOPRIM], the log distribution coefficient (logD) in data set [3] (octanol/water) worked out at 0.6.
Molecule CISPLATIN came in with a log partition coefficient (logP) in data set [1] of -1.45.

The values above are taken from ChEMBL document CHEMBL1122587 (J Med Chem, 1984).
